# Measurements: article PMC12428237, “Study on the Calcium Transport-Promoting Property and Mechanism of the Peptide–Calcium Complex DEEENDQVK–Ca Based on a Caco-2 Monolayer Model” (Foods, 2025)
# What was measured:
# [1] = system: Caco-2 monolayer; assay: Calcium transport assay in Caco-2 monolayer model; format: cell-based, human; conditions: 120 min
# Experimental: Caco-2 cells (passages 15–30) were seeded at 1 × 10^5 cells/mL in Transwell chambers (12 mm, 0.4 μm pores, polycarbonate membrane, 1.12 cm^2 area) to establish a Caco-2 monolayer model. The culture medium (0.5 mL in the apical and 1.5 mL in the basolateral) was refreshed every 48 h (first week), then daily (next two weeks). The integrity of the Caco-2 cell monolayer model was verified by the following multiple indicators: Transepithelial electrical resistance (TEER) was monitored every 48 h using an epithelial voltohmmeter (RE1600, Beijing Jingong Hongtai Technology Co., Ltd., Beijing, China). Alkaline phosphatase (ALP) activity was measured on days 8, 12, 14, 16, and 21 after inoculation utilizing an ALP assay kit, following the manufacturer’s protocol. Transepithelial permeability was evaluated using sodium fluorescein following the method of Qiu et al..
# Caco-2 monolayer models with a TEER value exceeding 500 Ω·cm^2 are permitted for calcium transport studies. Following three sequential washes with Hank’s balanced salt solution (HBSS; calcium/magnesium-free, pH 7.4), monolayers were equilibrated at 37 °C for 30 min. Afterward, the Transwell chambers were moved to fresh receiver plates for transport assays.
# Concentration-dependent CaCl2 transport assay: 0.5 mL of CaCl2 solution (1.5~10 mM) was added to the apical (AP) side. The basolateral (BL) side contained 1.5 mL prewarmed HBSS. After 120 min incubation at 37 °C and 5% CO2, the BL side solution was collected for calcium transport analysis.
# Time-dependent CaCl2 transport assay: The AP side contained 0.5 mL of 7.5 mM CaCl2 solution, and the BL side 1.5 mL prewarmed HBSS. At designated intervals (30~180 min), 1 mL BL side solution was collected and replaced with equal volumes of fresh HBSS buffer to maintain consistency.
# Different concentrations of DK solution (0.5~2 mg/mL, 0.5 mL) containing 7.5 mM CaCl2, or 0.5 mL of DK–Ca solution (0.5~2 mg/mL), were added to the AP side. The BL side contained 1.5 mL prewarmed HBSS. The control group contained 7.5 mM CaCl2 alone on the AP side. At designated intervals (30~180 min), 1 mL BL side solution was collected and replaced with equal volumes of fresh HBSS buffer to maintain consistency.
# Calcium concentration in the collected sample was measured using a calcium colorimetric assay kit at 575 nm. Transported calcium was calculated as follows:(1) Tn=1.5Cn+1×∑k=1n-1Ck […]
# [2] = system: Caco-2 monolayer; assay: Effect of dietary components (vitamin D3, phytic acid) on calcium transport in Caco-2 monolayer; format: cell-based, human; conditions: 120 min, control without dietary component, n = 3
# Experimental: Vitamin D3 (0.5 μmol/L, dissolved in 0.1% ethanol) or phytic acid (1.8 mM, with a of phytic acid/calcium molar ratio of 0.24) was added to the AP side to evaluate the effect of dietary components on calcium transport. The group without an added dietary component served as the control group. After 120 min incubation, the BL side solution was collected for calcium transport analysis.
# [3] = system: Caco-2 monolayer; assay: Calcium transport channel assay with channel regulators; format: cell-based, human; conditions: then 2 mg/mL sample, 120 min, 37 °C, n = 3
# Experimental: Before the calcium transport channel assay, 0.5 mL of HBSS buffer containing different channel regulators was added to the AP sides of the Transwell chambers. These channel regulators included 2-APB (25 μmol/L) as a calcium channel inhibitor of TRPV6, cytochalasin D (0.5 μmol/ mL) as a paracellular channel promoter, and mβCD (3 mmol/L) as an endocytic channel inhibitor. The group without the added channel regulator served as the control group. The BL side received a 1.5 mL HBSS buffer. Following 30 min incubation, solutions were removed from both sides. The AP side was then loaded with 0.5 mL of either DK–Ca (2 mg/mL) or 2 mg/mL DK + 7.5 mM CaCl2 solution, while the BL side received 1.5 mL HBSS. After 120 min incubation at 37 °C and 5% CO2, the BL solution was collected for calcium transport analysis.
# [4] = system: occludin; assay: RT-qPCR, occludin mRNA expression; format: cell-based, human; conditions: Caco-2 monolayer, 24 h, 2 mg/mL DK–Ca or 2 mg/mL DK + 7.5 mM CaCl2; normalized to GAPDH, 2^-ΔΔCt; n = 3
# Experimental: The expression levels of genes related to calcium transport channels were determined following the method of Li et al.. After 21 days of establishing the Caco-2 monolayer model, the monolayers were treated for 24 h with a complete medium containing 2 mg/mL DK–Ca or 2 mg/mL DK + 7.5 mM CaCl2. The group without an added sample served as the control group. Subsequently, the monolayers were washed thrice with HBSS buffer before cell lysis using 200 μL RNAiso Plus. Total RNA was extracted, and first-strand cDNA synthesis was subsequently performed with the PrimeScript® RT reagent kit as per the kit manufacturer’s instructions. Using cDNA as a template, RT-qPCR was performed with gene-specific primers targeting TRPV6, calbindin-D9k, PMCA1b, occludin, and claudin-2. The standard procedure for PCR amplification was as follows: 95 °C for 30 s, followed by 40 cycles of 95 °C for 5 s, 60 °C for 30 s, and 72 °C for 1 min. Target gene expression level was normalized to GAPDH and calculated using the 2^^(-ΔΔCt) relative quantification method. In experimental groups, GAPDH served as the internal reference gene for normalization. All primer sequences used in this study are detailed in Table S1.
# [5] = Caco-2; cited from earlier work
substance,measurement,setting,value
DEEENDQVK–Ca [DK–Ca],transported calcium,"[1]; 2 mg/mL DK–Ca (calcium content 300 μg/mL) on AP side, AP to BL, HBSS pH 7.4, 37 °C, calcium colorimetric kit 575 nm, mean ± SD, n = 3",74.11 ± 1.25 μg/well
same,"transported calcium, fold higher than that of the CaCl2 control group","[1]; calcium content 300 μg/mL (2 mg/mL peptide sample), AP to BL, 37 °C",1.83 fold
same,calcium transport-promoting capacity relative to DK + CaCl2,[1]; equivalent calcium dose (7.5 mM),1.37 times
same,reduction of transported calcium by phytic acid compared to the control group,[2]; phytic acid 1.8 mM (phytic acid/calcium molar ratio 0.24) on AP side,7.83%
same,increase of transported calcium by vitamin D3 compared to the control group,[2]; vitamin D3 0.5 μmol/L on AP side,11.3%
same,reduction of transported calcium by 2-APB treatment compared to the control group,"[3]; 2-APB (25 μmol/L, TRPV6 inhibitor) pre-incubation 30 min on AP side",43.94%
same,improvement of transported calcium by cytochalasin D treatment compared to the control group,"[3]; cytochalasin D (0.5 μmol/ mL, paracellular channel promoter) pre-incubation 30 min on AP side",14.82%
same,reduction of transported calcium by mβCD treatment compared to the control group,"[3]; mβCD (3 mmol/L, endocytic channel inhibitor) pre-incubation 30 min on AP side",12.35%
same,occludin mRNA expression compared to the control group,[4],unchanged
same,calcium dialysis rate relative to CaCO3,[5],1.79 times
same,solubility relative to blank control group (CaCO3),[5],1.56 times
